These results are taken from publication PMC9230573 (Frontiers in Pharmacology, 2022).

Where a SMILES comes first, the peptide text is derived from it. Bridges are numbered along the chain shown (N, C = ends).

The term IC50 denotes the concentration that inhibits the measured activity by half. Lower therefore signals greater potency in that assay.

The target in one assay is rat α3β2 nAChR (Rattus norvegicus, UniProt P04757+P12390). The assay is described as follows: cell-based.
For assay [1], the target named is human CaV2.2 (α1B, β3, α2δ1) (Homo sapiens, UniProt Q00975). In words: cell-based.
human CaV2.2 (α1B, β3, α2δ1), sequence (Q00975 whole entry, looked up): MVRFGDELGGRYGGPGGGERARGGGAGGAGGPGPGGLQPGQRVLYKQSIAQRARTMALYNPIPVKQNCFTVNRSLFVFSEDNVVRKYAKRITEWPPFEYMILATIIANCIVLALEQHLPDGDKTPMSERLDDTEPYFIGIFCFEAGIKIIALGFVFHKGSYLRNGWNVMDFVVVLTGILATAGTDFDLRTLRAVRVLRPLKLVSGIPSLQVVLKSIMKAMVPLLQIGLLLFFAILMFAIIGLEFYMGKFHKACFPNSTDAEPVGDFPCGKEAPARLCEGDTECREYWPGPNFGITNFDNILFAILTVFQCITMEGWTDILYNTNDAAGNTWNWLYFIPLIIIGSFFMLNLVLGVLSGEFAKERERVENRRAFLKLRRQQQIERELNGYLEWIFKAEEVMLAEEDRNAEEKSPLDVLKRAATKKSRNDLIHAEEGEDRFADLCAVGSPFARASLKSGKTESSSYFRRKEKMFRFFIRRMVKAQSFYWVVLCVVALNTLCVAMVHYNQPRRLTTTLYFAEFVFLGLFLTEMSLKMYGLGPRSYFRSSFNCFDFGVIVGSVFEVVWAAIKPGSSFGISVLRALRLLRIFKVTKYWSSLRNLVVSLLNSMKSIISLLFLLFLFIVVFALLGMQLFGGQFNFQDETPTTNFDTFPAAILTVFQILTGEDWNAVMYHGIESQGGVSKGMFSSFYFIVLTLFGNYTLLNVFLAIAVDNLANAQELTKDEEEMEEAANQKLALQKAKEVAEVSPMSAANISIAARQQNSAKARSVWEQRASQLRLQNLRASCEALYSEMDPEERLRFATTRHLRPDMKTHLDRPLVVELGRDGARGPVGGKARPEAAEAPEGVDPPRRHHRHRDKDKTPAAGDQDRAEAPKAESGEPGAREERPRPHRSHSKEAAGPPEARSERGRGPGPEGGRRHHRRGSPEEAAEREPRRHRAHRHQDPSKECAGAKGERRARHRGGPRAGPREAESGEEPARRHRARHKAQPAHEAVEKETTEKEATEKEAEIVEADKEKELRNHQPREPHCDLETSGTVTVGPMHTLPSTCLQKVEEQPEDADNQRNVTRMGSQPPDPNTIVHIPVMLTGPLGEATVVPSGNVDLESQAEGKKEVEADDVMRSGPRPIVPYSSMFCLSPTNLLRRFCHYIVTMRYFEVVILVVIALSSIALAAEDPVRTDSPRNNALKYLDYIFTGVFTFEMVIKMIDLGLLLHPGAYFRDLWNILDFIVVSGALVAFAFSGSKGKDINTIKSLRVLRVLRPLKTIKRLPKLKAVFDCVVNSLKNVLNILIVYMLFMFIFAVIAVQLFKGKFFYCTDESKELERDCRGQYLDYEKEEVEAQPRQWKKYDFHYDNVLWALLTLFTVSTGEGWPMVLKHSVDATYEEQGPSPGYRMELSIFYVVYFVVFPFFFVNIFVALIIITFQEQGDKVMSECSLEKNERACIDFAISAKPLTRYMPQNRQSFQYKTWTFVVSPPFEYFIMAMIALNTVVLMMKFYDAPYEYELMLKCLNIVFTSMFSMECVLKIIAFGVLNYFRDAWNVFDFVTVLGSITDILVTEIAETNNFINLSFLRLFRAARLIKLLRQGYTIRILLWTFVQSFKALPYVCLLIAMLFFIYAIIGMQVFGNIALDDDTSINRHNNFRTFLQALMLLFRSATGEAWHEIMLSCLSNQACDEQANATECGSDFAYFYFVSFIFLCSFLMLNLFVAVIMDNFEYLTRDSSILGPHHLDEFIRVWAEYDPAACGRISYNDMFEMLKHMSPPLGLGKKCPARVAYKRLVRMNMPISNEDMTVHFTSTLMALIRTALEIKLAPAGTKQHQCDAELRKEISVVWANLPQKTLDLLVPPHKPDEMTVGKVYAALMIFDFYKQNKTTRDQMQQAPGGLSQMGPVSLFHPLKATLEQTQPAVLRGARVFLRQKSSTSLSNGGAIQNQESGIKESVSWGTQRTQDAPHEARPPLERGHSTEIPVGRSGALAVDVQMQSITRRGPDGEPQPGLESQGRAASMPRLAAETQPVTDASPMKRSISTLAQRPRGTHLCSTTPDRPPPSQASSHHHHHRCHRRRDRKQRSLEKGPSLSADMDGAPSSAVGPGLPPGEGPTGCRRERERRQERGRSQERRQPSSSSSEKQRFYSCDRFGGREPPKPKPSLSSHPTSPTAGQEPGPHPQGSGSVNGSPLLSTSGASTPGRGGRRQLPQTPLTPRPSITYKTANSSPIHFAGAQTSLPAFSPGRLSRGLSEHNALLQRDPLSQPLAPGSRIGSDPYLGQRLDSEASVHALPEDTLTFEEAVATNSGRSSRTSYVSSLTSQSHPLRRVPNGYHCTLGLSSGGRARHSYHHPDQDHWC

rat α3β2 nAChR, sequence (P04757 26-499 limits assumed): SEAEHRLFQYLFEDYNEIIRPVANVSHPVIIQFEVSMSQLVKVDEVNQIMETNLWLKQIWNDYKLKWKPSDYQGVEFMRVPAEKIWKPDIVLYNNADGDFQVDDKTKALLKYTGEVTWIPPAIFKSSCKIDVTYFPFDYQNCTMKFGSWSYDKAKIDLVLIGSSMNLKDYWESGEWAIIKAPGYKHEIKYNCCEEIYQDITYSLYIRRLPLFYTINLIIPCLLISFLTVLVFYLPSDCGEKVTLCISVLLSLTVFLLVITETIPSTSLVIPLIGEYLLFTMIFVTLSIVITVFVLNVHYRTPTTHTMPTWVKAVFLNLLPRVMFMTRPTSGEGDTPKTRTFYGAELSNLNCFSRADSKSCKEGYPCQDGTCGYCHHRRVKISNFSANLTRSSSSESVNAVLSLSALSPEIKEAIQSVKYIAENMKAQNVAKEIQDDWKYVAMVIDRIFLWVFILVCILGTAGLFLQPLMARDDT
rat α3β2 nAChR, sequence (P12390 25-500 limits assumed): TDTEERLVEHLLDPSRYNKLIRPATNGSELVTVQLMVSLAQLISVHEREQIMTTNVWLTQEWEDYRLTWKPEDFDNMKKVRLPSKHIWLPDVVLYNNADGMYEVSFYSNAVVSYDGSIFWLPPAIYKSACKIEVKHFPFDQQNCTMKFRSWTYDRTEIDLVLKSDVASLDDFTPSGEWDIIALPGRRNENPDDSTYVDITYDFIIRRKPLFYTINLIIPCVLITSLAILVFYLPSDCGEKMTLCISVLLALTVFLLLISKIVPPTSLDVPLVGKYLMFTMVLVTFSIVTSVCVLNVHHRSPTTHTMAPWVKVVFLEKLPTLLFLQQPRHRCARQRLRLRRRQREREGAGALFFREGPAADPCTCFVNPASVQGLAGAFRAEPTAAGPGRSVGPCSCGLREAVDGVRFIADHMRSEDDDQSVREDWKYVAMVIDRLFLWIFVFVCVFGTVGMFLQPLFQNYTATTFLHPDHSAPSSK

On to `CC[C@H](C)[C@@H]1NC(=O)[C@@H]2CCCN2C(=O)[C@@H]2CSSC[C@H](NC(=O)[C@@H](N)CC(N)=O)C(=O)N[C@@H](CSSC[C@@H](C(N)=O)NC(=O)[C@H](CC(N)=O)NC(=O)[C@H](Cc3ccccc3)NC(=O)[C@H](CCCNC(=N)N)NC(=O)[C@H](CO)NC(=O)[C@H](C)NC(=O)[C@H](CC(=O)O)NC1=O)C(=O)N[C@@H](CCSC)C(=O)N[C@@H](Cc1ccccc1)C(=O)N[C@@H](Cc1c[nH]cn1)C(=O)N[C@@H]([C@@H](C)O)C(=O)N2` [Vt1.27[Y12A]] (H-NCCMFHTCPIDASRFNC-NH2; disulfide 2-8, 3-17), for which, on rat α3β2 nAChR, the Hillslope was -1.577, the IC50 was found to be 2.54 µM and the “change of potency at the α3β2 nAChR subtype compared with Vt1.27 (in words)” value (shortened to “change of potency”) is “a decrease in the potency”.

Turning to `CC[C@H](C)[C@@H]1NC(=O)[C@@H]2CCCN2C(=O)[C@@H]2CSSC[C@H](NC(=O)[C@@H](N)CC(N)=O)C(=O)N[C@@H](CSSC[C@@H](C(N)=O)NC(=O)[C@H](CC(N)=O)NC(=O)[C@H](Cc3ccccc3)NC(=O)[C@H](C)NC(=O)[C@H](CO)NC(=O)[C@H](Cc3ccc(O)cc3)NC(=O)[C@H](CC(=O)O)NC1=O)C(=O)N[C@@H](CCSC)C(=O)N[C@@H](Cc1ccccc1)C(=O)N[C@@H](Cc1c[nH]cn1)C(=O)N[C@@H]([C@@H](C)O)C(=O)N2` [Vt1.27[R14A]] (H-NCCMFHTCPIDYSAFNC-NH2; disulfide 2-8, 3-17), at rat α3β2 nAChR, the Hillslope is -0.871, the IC50 is 2.86 µM and the “change of potency” value was “a decrease in the potency”.

For the compound `CC[C@H](C)[C@@H]1NC(=O)[C@@H]2CCCN2C(=O)[C@@H]2CSSC[C@H](NC(=O)[C@@H](N)CC(N)=O)C(=O)N[C@@H](CSSC[C@@H](C(N)=O)NC(=O)[C@H](CC(N)=O)NC(=O)[C@H](C)NC(=O)[C@H](CCCNC(=N)N)NC(=O)[C@H](CO)NC(=O)[C@H](Cc3ccc(O)cc3)NC(=O)[C@H](CC(=O)O)NC1=O)C(=O)N[C@@H](CCSC)C(=O)N[C@@H](Cc1ccccc1)C(=O)N[C@@H](Cc1c[nH]cn1)C(=O)N[C@@H]([C@@H](C)O)C(=O)N2` [Vt1.27[F15A]] (H-NCCMFHTCPIDYSRANC-NH2; disulfide 2-8, 3-17), at rat α3β2 nAChR, the IC50 is greater than 10 µM and the “change of potency” value is given as “a decrease in the potency”. In addition, in assay [1], the “inhibitory activity at CaV2.2 compared with Vt1.27 (in words; percent inhibition of IBa)” value is reported as “equipotent to the native peptide”.

For `CC[C@H](C)[C@@H]1NC(=O)[C@H](C)NC(=O)[C@@H]2CSSC[C@H](NC(=O)[C@@H](N)CC(N)=O)C(=O)N[C@@H](CSSC[C@@H](C(N)=O)NC(=O)[C@H](CC(N)=O)NC(=O)[C@H](Cc3ccccc3)NC(=O)[C@H](CCCNC(=N)N)NC(=O)[C@H](CO)NC(=O)[C@H](Cc3ccc(O)cc3)NC(=O)[C@H](CC(=O)O)NC1=O)C(=O)N[C@@H](CCSC)C(=O)N[C@@H](Cc1ccccc1)C(=O)N1CCC[C@H]1C(=O)N[C@@H]([C@@H](C)O)C(=O)N2` [Vt1.27[H6P、P9A]] (H-NCCMFPTCAIDYSRFNC-NH2; disulfide 2-8, 3-17), at rat α3β2 nAChR, the IC50 is greater than 10 µM and the “change of potency” value is reported as “a significant loss of potency”.

Turning to `CC[C@H](C)[C@@H]1NC(=O)[C@H](C)NC(=O)[C@@H]2CSSC[C@H](NC(=O)[C@@H](N)CC(N)=O)C(=O)N[C@@H](CSSC[C@@H](C(N)=O)NC(=O)[C@H](CC(N)=O)NC(=O)[C@H](Cc3ccccc3)NC(=O)[C@H](CCCNC(=N)N)NC(=O)[C@H](CO)NC(=O)[C@H](Cc3ccc(O)cc3)NC(=O)[C@H](CC(=O)O)NC1=O)C(=O)N[C@@H](CCSC)C(=O)N[C@@H](Cc1ccccc1)C(=O)N[C@@H](Cc1c[nH]cn1)C(=O)N[C@@H]([C@@H](C)O)C(=O)N2` [Vt1.27[P9A]] (H-NCCMFHTCAIDYSRFNC-NH2; disulfide 2-8, 3-17), at rat α3β2 nAChR, the Hillslope is recorded as -0.763; the midpoint of inhibition, the IC50, lay at 9.4 µM; the “change of potency” value is on record as “a sharp decrease in activity”. Besides, the “inhibitory activity at CaV2.2 compared with Vt1.27 (in words; percent inhibition of IBa)” value in assay [1] is “decrease in inhibitory activity”.
